Experimental data published in patent US12552766B2, “Pesticidally active azole amide compounds” (SYNGENTA CROP PROTECTION AG, priority 2019, dated 2026).

Legend:
Type in all cases: in vivo
[1] = system: Diabrotica Balteata (Corn Root Worm); test: Example B1: Diabrotica balteata, spray on maize sprouts; settings: 96 h, application rate of 200 ppm, L2 larvae, 4 days after infestation, read-out: control in at least one of the two categories (mortality or growth inhibition)
Summary of the method: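 Maize sprouts on agar were sprayed with aqueous test solutions made from 10′000 ppm DMSO stocks, dried, then infested with 6 to 10 L2 larvae per well. Mortality and growth inhibition were scored against untreated samples 4 days after infestation.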

[2] = system: Chilo suppressalis (Striped Rice Stemborer); test: Example B4: Chilo suppressalis, artificial diet; settings: 144 h, application rate of 200 ppm, L2 larvae, 6 days after infestation, read-out: control in at least one of the three categories (mortality, anti-feedant effect, or growth inhibition)
Summary of the method: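 Diet-incorporation surface assay: aqueous dilutions of 10'000 ppm DMSO stock applied to artificial diet, dried; 6-8 L2 larvae/well; read day 6 post-infestation for mortality, antifeedant effect, growth inhibition vs untreated. Active if any category above untreated.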

[3] = system: Plutella xylostella (Diamond Back Moth); test: Example B5: Plutella xylostella, artificial diet, 24-well; settings: 192 h, application rate of 200 ppm, eggs, 8 days after infestation, read-out: control in at least one of the two categories (mortality or growth inhibition)
Experimental: 24-well microtiter plates with artificial diet were treated with aqueous test solutions prepared from 10′000 ppm DMSO stock solutions by pipetting. After drying, Plutella eggs were pipetted through a plastic stencil onto a gel blotting paper and the plate was closed with it. The samples were assessed for mortality and growth inhibition in comparison to untreated samples 8 days after infestation.

[4] = system: Spodoptera littoralis (Egyptian Cotton Leaf Worm); test: Example B9: Spodoptera littoralis, spray on cotton leaf discs; settings: foliar, 72 h, application rate of 200 ppm, L1 larvae, 3 days after infestation, read-out: control in at least one of the three categories (mortality, anti-feedant effect, or growth inhibition)
Summary of the method: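 Leaf discs on agar; spray, aqueous dilution of 10′000 ppm DMSO stock; dry; 5 L1 larvae/disc. Read at 3 d post-infestation: mortality, antifeedant, growth inhibition vs untreated. Control = ≥1 category above untreated.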

[5] = system: Plutella xylostella (Diamondback Moth); test: Example B13: Plutella xylostella, artificial diet, 96-well; settings: 216 h, application rate of 500 ppm, eggs/L1 larvae, 9 days after infestation
Experimental: 96-well microtiter plates containing artificial diet were treated with aqueous test solutions, prepared from 10′000 ppm DMSO stock solutions, by a liquid handling robot. After drying, eggs (˜30 per well) were infested onto a netted lid which was suspended above the diet. The eggs hatch and L1 larvae move down to the diet. The samples were assessed for mortality 9 days after infestation.

[6] = system: Tetranychus urticae (Two-Spotted Spider Mite); test: Example B14: Tetranychus urticae, feeding/contact activity; settings: 192 h
Experimental: Bean leaf discs on agar in 24-well microtiter plates were sprayed with aqueous test solutions prepared from 10′000 ppm DMSO stock solutions. After drying the leaf discs were infested with a mite population of mixed ages. The samples were assessed for mortality on mixed population (mobile stages) 8 days after infestation.

[7] = system: Euschistus heros (Neotropical Brown Stink Bug); test: Example B2: Euschistus heros, spray on soybean leaves; settings: 120 h, application rate of 200 ppm, N2 nymphs, 5 days after infestation, read-out: control in at least one of the two categories (mortality or growth inhibition)
Experimental: Soybean leaves on agar in 24-well microtiter plates were sprayed with aqueous test solutions prepared from 10′000 ppm DMSO stock solutions. After drying the leaves were infested with N2 nymphs. The samples were assessed for mortality and growth inhibition in comparison to untreated samples 5 days after infestation.

[8] = system: Spodoptera littoralis (Egyptian Cotton Leaf Worm); test: Example B10: Spodoptera littoralis, uptake by lettuce roots from agar; settings: 144 h, test rate of 12.5 ppm, eggs, 6 days after infestation, read-out: control in at least one of the three categories (mortality, anti-feedant, or growth inhibition)
From the text: Test compounds were applied by pipette from 10′000 ppm DMSO stock solutions into 24-well plates and mixed with agar. Lettuce seeds were placed onto the agar and the multi well plate was closed by another plate which contained also agar. After 7 days the compound was absorbed by the roots and the lettuce grew into the lid plate. The lettuce leaves were then cut off into the lid plate. Spodoptera eggs were pipetted through a plastic stencil onto a humid gel blotting paper and the lid plate was closed with it. The samples were assessed for mortality, anti-feedant effect and growth inhibition in comparison to untreated samples 6 days after infestation.

[9] = system: Myzus persicae (Green Peach Aphid); test: Example B6: Myzus persicae, feeding/contact activity; settings: 144 h, application rate of 200 ppm, mixed ages, 6 days after infestation
Experimental: Sunflower leaf discs were placed onto agar in a 24-well microtiter plate and sprayed with aqueous test solutions prepared from 10′000 ppm DMSO stock solutions. After drying, the leaf discs were infested with an aphid population of mixed ages. The samples were assessed for mortality 6 days after infestation.

CC(NC(=O)c1cc(OC(F)F)cc(C(F)(F)F)c1)c1nc(Br)nn1-c1ccc(OCC(F)F)cn1 (stereo not drawn) [Compound P16, N-[1-[5-bromo-2-[5-(2,2-difluoroethoxy)-2-pyridyl]-1,2,4-triazol-3-yl]ethyl]-3-(difluoromethoxy)-5-(trifluoromethyl) benzamide]
≥ 80%: percent control (mortality or growth inhibition) at 200 ppm [1] | percent control (mortality, anti-feedant effect or growth inhibition) at 200 ppm [2] | percent control (mortality or growth inhibition) at 200 ppm [3] | percent control (mortality, anti-feedant effect or growth inhibition) at 200 ppm [4] | mortality at 500 ppm [5] | mortality at 200 ppm [6]

CC(c1nc(Br)nn1-c1ccc(C#N)cn1)N(C)C(=O)c1cc(C(F)(F)F)cc(C(F)(F)F)c1 (stereo not drawn) [Compound P12, N-[1-[5-bromo-2-(5-cyano-2-pyridyl)-1,2,4-triazol-3-yl]ethyl]-N-methyl-3,5-bis(trifluoromethyl) benzamide]
≥ 80%: percent control (mortality or growth inhibition) at 200 ppm [1] | percent control (mortality or growth inhibition) at 200 ppm [7] | percent control (mortality, anti-feedant effect or growth inhibition) at 200 ppm [2] | percent control (mortality or growth inhibition) at 200 ppm [3] | percent control (mortality, anti-feedant effect or growth inhibition) at 200 ppm [4] | percent control (mortality, anti-feedant effect or growth inhibition) at 12.5 ppm [8] | mortality at 500 ppm [5]

CC(NC(=O)c1cc(Br)cc(C(F)(F)F)c1)c1nc(Br)nn1-c1ccc(OCC(F)F)cn1 (stereo not drawn) [Compound P35, 3-bromo-N-[1-[5-bromo-2-[5-(2,2-difluoroethoxy)-2-pyridyl]-1,2,4-triazol-3-yl]ethyl]-5-(trifluoromethyl) benzamide]
≥ 80%: percent control (mortality or growth inhibition) at 200 ppm [1] | percent control (mortality, anti-feedant effect or growth inhibition) at 200 ppm [2] | percent control (mortality or growth inhibition) at 200 ppm [3] | mortality at 200 ppm [9] | percent control (mortality, anti-feedant effect or growth inhibition) at 200 ppm [4] | mortality at 500 ppm [5]

CC(NC(=O)c1cc(OCC(F)F)cc(C(F)(F)F)c1)c1nc(Br)nn1-c1ccc(OCC(F)(F)F)cn1 (stereo not drawn) [Compound P55, N-[1-[5-bromo-2-[5-(2,2,2-trifluoroethoxy)-2-pyridyl]-1,2,4-triazol-3-yl]ethyl]-3-(2,2-difluoroethoxy)-5-(trifluoromethyl) benzamide]
≥ 80%: percent control (mortality or growth inhibition) at 200 ppm [3] | mortality at 200 ppm [9]
